Patent publication US20080242594A1, “Methods for Promoting Stem Cell Proliferation and Survival” (priority 2005, published 2008)

How the values were obtained:
[1] = system: mES (D3) cells; experiment: mES cell plating efficiency, Oct4 and STAT3 phosphorylation in the presence of LIF; assay type: cell-based, mouse
Excerpt: FIGS. 10a-10c are a set of images showing JAK inhibition reduces the phosphorylation of STAT3 on Ser727 in mES cell cultures. […] Very low levels of phosphorylated p38 were detectable under all conditions. […] Self-renewal of mES cells correlated with Ser727 phosphorylation.
mES (D3) cells were obtained from ATCC and were maintained in feeder-free cultures on gelatin-coated plates supplemented with 1400 units/ml LIF.
There is great interest in conditions that support the growth of mouse and human ES cells. In contrast to CNS SC (FIG. 2, FIG. 3) and hES SC (se below), the growth of undifferentiated mouse ES cells depends on the stimulation of the JAK/STAT pathway and STAT3 phosphorylation on Tyr705 has been specifically shown to be essential for self-renewal of mouse ES cells (Niwa et al., Genes Dev 12:2048-60, 1998; Matsuda et al., Embo J 18:4261-9, 1999). Ligands that stimulate the JAK/STAT pathway cause human ES cells to differentiate (Daheron et al., Stem Cells 22:770-8, 2004; Humphrey et al., Stem Cells 22:522-30, 2004). It was determined if the Notch/sSTAT survival pathway is present in mouse or human ES cells.

[2] = system: HSF6 hES cells; experiment: hES single cell plating efficiency, HSF-6; assay type: cell-based, human; settings: one week treatment
Excerpt: The human ES cell lines HSF-6 (University of California, San Francisco; NIH # UC06, Passage 38-120) and H1 and H9 (WiCell Research Institute, NIH # WA01 and […]) were maintained on mouse embryonic fibroblasts (MEF) according to the suppliers' protocols. Immunocytochemistry and FACS analysis for the expression of Oct4 and SSEA4 and SKY karyotyping established that the starting cells are undifferentiated and have a normal set of chromosomes. For single cell survival experiments, hES colonies were harvested after treatment with 1.5 mg/ml collagenase type IV (Invitrogen), separated from the MEF feeder cells by repeated washing by gravity, gently triturated to break up colonies into small aggregates, further dissociated into a single cell solution by trypsination (0.05% trypsin/0.04% EDTA) and transferred on MEF feeder cells at a density of 10000 cells/ml. Oct-4 positive colonies were counted six days after plating. […]
The pro-survival effects of activation of Notch and inhibition of JAK was tested on HSF-6 (NIH code UC06, http://escell.ucsf.edu), H1 (NIH code WA01, www.wicell.org) and H9 (NIH code WA09, www.wicell.org) hES cells. Singly dissociated hES cells were plated on mouse embryo fibroblasts (MEFs), treated daily for one week and colony numbers counted. […]

[3] = system: E13.5 cortical embryonic mouse CNS stem cells; experiment: CNS stem cell plating efficiency / colony formation / survival; assay type: cell-based; settings: 5 days, versus FGF2 control; CNTF low 0.01, 0.1 ng/ml or high 20 ng/ml with JAK inhibitor
Experimental: Cell culture: E13.5 cortical embryonic mouse and adult rat subventricular zone CNS stem cells were grown as previously described (Johe et al., Genes Dev 10:3129-40, 1996; Rajan et al., J Neurosci 18:3620-9, 1998). Cells were expanded in serum-free DMEM/F12 medium with N2 supplement with FGF2 (20 ng/ml) for 5 days and were re-plated at 1000-10,000 cells per cm^2. FGF2 was included throughout our experiments, unless otherwise stated.
To explore these paradoxical observations, CNS stem cell cultures from mid-gestation (embryonic day 13.5) mouse dorsal telencephalon were treated with soluble Notch ligands. […] Following initial passaging, the cells were plated at a density of 1000 cells/cm^2, cultured for 5 days in the presence of FGF2, and colony numbers, sizes, and BrdU incorporation (after a 4 hour BrdU pulse) were enumerated. Notch activation by Jagged-1 or Delta-4 (200 ng/ml) increased the number of colonies generated in vitro by over 3-fold (FIG. 1a). […] The effects of Notch activation were most dramatic when treatments were initiated at the start of the culture.
Insulin in the medium is also thought to promote cell survival. […] Seeding cells in the absence of insulin caused the plating efficiency measured at five days to drop to 29.9%±37.9 (FIG. 1e). Delta-4 was able to compensate for the lack of insulin in the medium, and restored plating efficiency (125%±19.4). Because Notch activation improved survival, activation of Akt, a ser/threonine kinase known to be involved in cell survival, was assayed. Notch activation rapidly (5 minutes) promoted the phosphorylation of Akt on Ser473 and […] in both the presence and absence of insulin (FIG. 1f).

[4] = system: p38, SMAD1/5/8, MSK-1, STAT3 phosphorylation in hES cells; experiment: Signalling immunoblots in hES cells
Experimental: Immunoblotting: Immunoblotting was performed as previously described (Panchision et al., Genes Dev 15:2094-110, 2001). The following antibodies were used in the experiments described below: pSer473-Akt (92715), pSer308-Akt (9275), pSer2448-mTOR (29715), pThr180/Tyr182-p38 (9211), pSMAD1/5/8 (9511) from Cell Signaling; STAT3 (482), pSer727-STAT3 (8001-R), pTyr705-STAT3 (7993) from Santa Cruz; Sonic Hedgehog (R&D, AF464), nucleostemin (McKay Lab), Hes3 (Chemicon, AB5706), α-tubulin (Sigma, T-6074).
To determine whether in the hES system JAK inhibition reduced p38 activity, cells were treated in the absence of MEF with JAK inhibitor for different times and assayed for p38 phosphorylation.

[5] = system: adult rat subventricular zone (SVZ); experiment: Dividing (BrdU+) cells in SVZ after single lateral ventricle injection; assay type: in vivo; settings: BrdU for 3 days, sacrificed on the 5th day
Experimental: In vivo, Notch and insulin also increase the number of dividing cells in the adult rat subventricular zone (SVZ) 5 days after a single injection It was determined that Notch and insulin co-operate to promote new (BrdU+) cells in vivo. Specifically, the reagents infused in the lateral ventricle of adult rats as a single injection. The rats were then given BrdU for 3 days and sacrificed on the 5th day (Table 10).

[6] = system: STAT3; experiment: STAT3 phosphorylation (Ser727, Tyr705) immunoblot in CNS stem cells; assay type: cell-based, mouse
Excerpt: Ligands that activate JAK/STAT signaling promote astrocytic differentiation of CNS stem cells (Johe et al., Genes Dev 10:3129-40, 1996; Raj an et al., J Neurosci 18:3620-9, 1998; Bonni et al., Science 278:477-83, 1997; Song et al., Nat Neurosci 7:229-35, 2004; He et al., Nat Neurosci 8:616-625, 2005). When applying CNTF to CNS stem cells it was noted that low concentrations of CNTF stimulated survival but not expression of astrocyte specific genes. This is consistent with previous observations of Akt phosphorylation downstream of gp130 activation (Taga et al., Annu Rev Immunol 15:797-819, 1997). […] At high concentrations (20 ng/ml) the phosphorylation of Tyr705 can be blocked by an inhibitor of JAK while allowing a CNTF-induced increase in Ser727 phosphorylation (FIG. 2B) (Thompson et al., Bioorg Med Chem Lett 12:1219-23, 2002).
CNTF was used as a positive control; CNTF, induced the phosphorylation on both sites. With both CNTF and Notch activation, phosphorylation peaked at around 30 min. STAT3 phosphorylation on Ser727 following Notch activation was sensitive to the γ-secretase inhibitor DAPT (FIG. 2e). […] In contrast to CNTF, no Tyr705 phosphorylation was detected at any of the doses of Notch receptor ligands.
It was determined that insulin also maintains phosphorylation of serine 727 in STAT3 in foetal neural stem cell cultures.

[7] = system: mouse fetal central nervous system stem cell cultures; experiment: Survival of fetal CNS stem cell cultures with insulin and Dll4; assay type: cell-based
Experimental: (§1) As there was a tight correlation between the Notch survival pathway and Hes3, it was investigated as to whether Hes3 is a mediator of the Notch pro-survival signalling. It was determined that both insulin and Notch activation promote the survival of foetal and adult neural stem cell cultures and their effects are additive (Tables 8-9).

[8] = system: Notch1; experiment: Notch activation (Notch1IC / Notch ICD) immunocytochemical detection; assay type: cell-based, mouse
Excerpt: Antibodies were used that specifically bind: Notch1IC (Chemicon, 5352), GFP (Molecular Probes, A11122), Oct3/4 (Santa Cruz, sc-5279), SSEA1 and SSEA4 (Developmental Studies HybridomaBank), Tra-1-60 (Chemicon, MAB4360), Tra-1-81 (Chemicon, MAB4381), human nestin (Chemicon, MAB5326), Sox-1 (Gift from Dr. R Lovell-Badge), TH (Pel-Freez, P40101-0), Tuj1 (Covance, MMS-435P), rat nestin (McKay Lab), GFAP (Dako, z0334), CNPase (Chemicon, MAB326), BrdU (Accurate, H5903), DCX (Santa Cruz, sc-8066), Sox2 (R&D, MAB2018), Hu (Molecular Probes, A21271).
To assay for Notch activation, cultures were treated with the Notch ligands for 1 hour and Notch1 activation was detected by immunocytochemical staining of Notch1IC (FIG. 1b).
(§2) It was determined that insulin facilitates Notch cleavage using immunocytochemical detection.

[9] = system: IGF1/insulin receptor; experiment: IGF1/insulin receptor phosphorylation in foetal NSC cultures; assay type: cell-based, mouse
Experimental: Specifically, D114 induced the phosphorylation of IGF1/insulin receptor. Peak phosphorylation occurred at 2-5 minutes.
as §2

[10] = system: rat adult subventricular zone central nervous system stem cell cultures; experiment: Survival of adult SVZ CNS stem cell cultures with insulin and Dll4; assay type: cell-based
Experimental: as §1

[11] = Insulin withdrawal, 2 days and then treat for 1 h

| Compound | Oct4 expression ([1]; five day treatments in the presence of LIF) | cell survival in a plating efficiency assay ([1]; in the presence of LIF) | human ES cell survival [2] | CNS stem cell survival / plating efficiency [3] | STAT3 phosphorylation on Ser727 [4] | phosphorylation of MSK-1 kinase [4] | phosphorylation of SMAD 1/5/8 [4] | Cell # [5] | STAT3-S727 ([6]; +Ins, 2 days) | STAT3-Y705 ([6]; +Ins, 2 days) | STAT3-S727 ([6]; −Ins, 2 days→ +Ins, 1 hour) | STAT3-Y705 ([6]; −Ins, 2 days→ +Ins, 1 hour) | Cell # [7] | Notch ICD ([8]; +Ins, no withdrawal) | Notch ICD [8, 11] | pIGF1 (19H7) ([9]; +Ins, no withdrawal) | pIGF1 (3021) ([9]; +Ins, no withdrawal) | pIGF1 (19H7) [9, 11] | pIGF1 (3021) [9, 11] | Cell # [10] |
| --- | --- | --- | --- | --- | --- | --- | --- | --- | --- | --- | --- | --- | --- | --- | --- | --- | --- | --- | --- | --- |
| C[S+]([O-])c1ccc(-c2nc(-c3ccc(F)cc3)c(-c3ccncc3)[nH]2)cc1 (centres unmarked) [p38 inhibitor, 4-(4-Fluorophenyl)-2-(4-methylsulfinylphenyl)-5-(4-pyridyl)1H-imidazole] | did not affect Oct4 expression | did not significantly alter cell survival | stimulated human ES cell survival | enhanced survival to a similar extent to the JAK inhibitor | stimulated STAT3 phosphorylation on Ser727 | reduced the phosphorylation of MSK-1 kinase | reduced in a time-dependent manner | – | – | – | – | – | – | – | – | – | – | – | – | – |
| Ins: insulin in the culture medium or infused | – | – | – | – | – | – | – | Medium | High | No signal | High | No signal | Medium | High | High | High | High | High | High | Medium |
